According to paper PMC9503132, “Development of Halogenated-Chalcones Bearing with Dimethoxy Phenyl Head as Monoamine Oxidase-B Inhibitors” (Pharmaceuticals, 2022):
Like-named read-outs stand apart in the source and are kept apart here.

How the values were obtained:
[1] = target: BChE (Equus caballus, UniProt P81908); assay: biochemical; conditions: read-out: Residual activity at 10 µM (%) BChE
Procedure: (§1) The AChE and BChE inhibitory activities were measured by continuous colorimetric determination method, in the presence of 0.5 mM acetylthiocholine iodide (ACTI) and butyrylthiocholine iodide […]
(§2) POP, K LAB, Daejeon, Korea). After adding the substrate, 0.5 mM 5,5-dithiobis (2-nitrobenzoic acid) (DTNB) was added as the color development solution. The BACE-1 inhibitory activity was evaluated by β-secretase (BACE1) activity detection kit (Sigma-Aldrich, St. Louis, Mo, USA) using a fluorescence spectrometer (FS-2, Scinco, Seoul, Korea). […]

[2] = target: T1, MAO-A (Homo sapiens, UniProt P21397); assay: MAO-A inhibition assay (recombinant enzyme, kynuramine substrate); type: biochemical; conditions: for remaining activity at 10 µM: read-out: Residual Activity at 10 µM (%) MAO-A
T1 construct: purchased Sigma-Aldrich
T1 sequence (P21397 1-527): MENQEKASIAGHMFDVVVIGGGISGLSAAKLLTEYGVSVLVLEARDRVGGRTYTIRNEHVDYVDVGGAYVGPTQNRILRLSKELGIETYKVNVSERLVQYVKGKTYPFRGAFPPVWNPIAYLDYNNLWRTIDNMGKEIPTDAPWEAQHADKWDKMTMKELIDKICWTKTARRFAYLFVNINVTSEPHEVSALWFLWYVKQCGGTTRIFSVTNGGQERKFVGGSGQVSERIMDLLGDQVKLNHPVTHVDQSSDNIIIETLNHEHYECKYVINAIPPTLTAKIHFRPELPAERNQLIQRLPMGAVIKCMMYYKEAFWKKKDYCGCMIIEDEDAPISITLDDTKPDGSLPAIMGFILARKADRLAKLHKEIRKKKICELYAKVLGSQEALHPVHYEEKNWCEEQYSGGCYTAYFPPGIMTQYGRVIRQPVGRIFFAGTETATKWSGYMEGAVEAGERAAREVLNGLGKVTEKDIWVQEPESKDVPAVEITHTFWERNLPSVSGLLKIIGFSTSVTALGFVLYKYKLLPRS
Procedure: (§3) Recombinant MAO-A and MAO-B were used to test the MAO inhibitory activity using the substrates kynuramine and benzylamine (0.06 mM and 0.3 mM, respectively). […] Chemicals were from Sigma-Aldrich.
(§4) MAO-A At 10 µM, compounds’ inhibitory effects on MAOs were initially recorded. […] The SI values of MAO-B were calculated by dividing the IC50 values for MAO-A and those for MAO-B. The MAO-B was used to study the kinetics of substances DM2 or DM18 at five different substrate concentrations. By using the LB plots and their secondary plots at three different inhibitor doses, the inhibition patterns were examined.

[3] = target: AChE (Electrophorus electricus, UniProt O42275); assay: AChE inhibition (colorimetric, acetylthiocholine iodide); type: biochemical; conditions: read-out: Residual activity at 10 µM (%) AChE
AChE, sequence (O42275 24-633): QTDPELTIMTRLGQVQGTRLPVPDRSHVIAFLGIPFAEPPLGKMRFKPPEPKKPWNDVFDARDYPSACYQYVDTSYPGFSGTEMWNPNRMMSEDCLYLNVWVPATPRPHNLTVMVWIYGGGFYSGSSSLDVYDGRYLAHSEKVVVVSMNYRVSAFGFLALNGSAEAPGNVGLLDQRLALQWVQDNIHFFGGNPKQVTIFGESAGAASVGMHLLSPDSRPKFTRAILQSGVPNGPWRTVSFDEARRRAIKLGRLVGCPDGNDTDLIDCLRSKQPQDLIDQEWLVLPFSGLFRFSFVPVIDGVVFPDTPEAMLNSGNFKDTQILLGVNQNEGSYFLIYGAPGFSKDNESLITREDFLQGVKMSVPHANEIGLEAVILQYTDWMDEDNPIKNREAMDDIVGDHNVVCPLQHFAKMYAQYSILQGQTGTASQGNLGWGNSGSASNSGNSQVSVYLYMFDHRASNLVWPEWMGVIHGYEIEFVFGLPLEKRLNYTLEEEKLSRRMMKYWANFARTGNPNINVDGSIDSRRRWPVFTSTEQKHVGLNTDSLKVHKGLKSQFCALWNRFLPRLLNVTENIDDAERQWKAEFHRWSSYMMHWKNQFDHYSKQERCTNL
Procedure: as §1
POP, K LAB, Daejeon, Korea). After adding the substrate, 0.5 mM 5,5-dithiobis (2-nitrobenzoic acid) (DTNB) was added as the color development solution. The BACE-1 inhibitory activity was evaluated by β-secretase (BACE1) activity detection kit (Sigma-Aldrich, St. Louis, Mo, USA) using a fluorescence spectrometer (FS-2, Scinco, Seoul, Korea).
64. […] A new and rapid colorimetric determination of acetylcholinesterase activity. Biochem. Pharmacol. 7, 88-95. […]

[4] = target: T2, MAO-B (Homo sapiens, UniProt P27338); assay: MAO-B inhibition assay (recombinant enzyme, benzylamine substrate); type: biochemical; conditions: for SI (selectivity index for MAO-B as compared to MAO-A): IC50 MAO-A divided by IC50 MAO-B; for remaining activity at 10 µM: read-out: Residual Activity at 10 µM (%) MAO-B
T2 construct: purchased Sigma-Aldrich
T2 sequence (P27338 1-520): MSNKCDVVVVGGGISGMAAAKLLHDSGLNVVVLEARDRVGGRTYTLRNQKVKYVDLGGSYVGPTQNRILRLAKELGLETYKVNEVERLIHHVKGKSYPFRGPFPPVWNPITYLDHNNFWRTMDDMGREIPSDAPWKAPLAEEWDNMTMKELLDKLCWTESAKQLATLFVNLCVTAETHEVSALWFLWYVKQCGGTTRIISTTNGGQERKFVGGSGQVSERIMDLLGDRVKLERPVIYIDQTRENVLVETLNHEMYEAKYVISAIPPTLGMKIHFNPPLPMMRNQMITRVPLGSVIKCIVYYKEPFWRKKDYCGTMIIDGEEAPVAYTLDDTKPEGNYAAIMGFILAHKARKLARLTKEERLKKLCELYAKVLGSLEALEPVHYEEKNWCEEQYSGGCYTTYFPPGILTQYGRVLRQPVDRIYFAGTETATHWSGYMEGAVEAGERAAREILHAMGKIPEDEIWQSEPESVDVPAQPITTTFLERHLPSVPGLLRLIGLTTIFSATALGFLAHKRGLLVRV
Procedure: as §3, §4

[5] = target: T3, BACE-1 (Homo sapiens, UniProt P56817); assay: BACE-1 inhibition (β-secretase activity detection kit); type: biochemical; conditions: read-out: Residual activity at 10 µM (%) BACE-1
T3 construct: purchased Sigma-Aldrich
T3 sequence (P56817 46-501): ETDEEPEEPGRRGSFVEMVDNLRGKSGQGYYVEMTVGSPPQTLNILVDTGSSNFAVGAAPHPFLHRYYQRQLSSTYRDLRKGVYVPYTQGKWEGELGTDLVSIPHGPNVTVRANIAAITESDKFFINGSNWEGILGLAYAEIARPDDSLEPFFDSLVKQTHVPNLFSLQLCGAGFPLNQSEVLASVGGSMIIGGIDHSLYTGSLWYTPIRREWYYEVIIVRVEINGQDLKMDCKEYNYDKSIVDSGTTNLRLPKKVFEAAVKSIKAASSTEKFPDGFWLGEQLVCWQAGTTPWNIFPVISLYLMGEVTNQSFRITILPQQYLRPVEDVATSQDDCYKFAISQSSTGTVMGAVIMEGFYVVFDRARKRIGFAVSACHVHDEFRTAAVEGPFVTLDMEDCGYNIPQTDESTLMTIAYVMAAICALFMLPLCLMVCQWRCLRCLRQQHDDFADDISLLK
Procedure: as §1, §2

[6] = 10 µM compound, recombinant MAO-A, kynuramine 0.06 mM
[7] = recombinant MAO-A, kynuramine 0.06 mM, read-out: IC50 (µM) MAO-A
[8] = 10 µM compound, recombinant MAO-B, benzylamine 0.3 mM
[9] = recombinant MAO-B, benzylamine 0.3 mM, read-out: IC50 (µM) MAO-B

BChE, sequence (P81908 whole entry): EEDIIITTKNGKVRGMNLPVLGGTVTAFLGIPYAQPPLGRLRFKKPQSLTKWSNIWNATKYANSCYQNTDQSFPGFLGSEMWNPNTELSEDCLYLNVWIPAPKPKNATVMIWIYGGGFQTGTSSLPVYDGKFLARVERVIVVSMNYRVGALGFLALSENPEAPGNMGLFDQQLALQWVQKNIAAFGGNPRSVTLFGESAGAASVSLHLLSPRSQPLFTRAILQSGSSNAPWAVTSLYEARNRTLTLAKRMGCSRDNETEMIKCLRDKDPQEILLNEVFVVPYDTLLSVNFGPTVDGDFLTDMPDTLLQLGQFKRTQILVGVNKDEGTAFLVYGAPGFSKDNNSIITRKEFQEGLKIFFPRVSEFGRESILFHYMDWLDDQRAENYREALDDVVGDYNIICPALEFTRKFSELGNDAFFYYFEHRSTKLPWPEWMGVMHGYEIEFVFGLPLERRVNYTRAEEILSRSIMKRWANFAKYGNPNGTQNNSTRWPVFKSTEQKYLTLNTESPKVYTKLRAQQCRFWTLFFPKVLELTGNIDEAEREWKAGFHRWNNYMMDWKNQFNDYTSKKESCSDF

Compound	remaining activity at 10 µM [1] [%]	IC50 [2] [µM]	remaining activity at 10 µM [2] [%]	remaining activity at 10 µM [3] [%]	IC50 [4] [µM]	SI (selectivity index for MAO-B as compared to MAO-A) [4]	remaining activity at 10 µM [4] [%]	remaining activity at 10 µM [5] [%]	remaining activity at 10 µM [2, 6] [%]	IC50 [2, 7] [µM]	remaining activity at 10 µM [4, 8] [%]	IC50 [4, 9] [µM]	remaining activity at 10 µM ([5]; 10 µM compound) [%]
COc1ccc(C(=O)/C=C/c2ccccc2)c(OC)c1 [DM1]	93.21 ± 0.3	15.4 ± 1.97	57.2 ± 1.91	75.6 ± 2.35	0.927 ± 0.021	16.61	17.6 ± 0.74	92.67 ± 0.26					
COc1ccc(C(=O)/C=C/c2cccc(Cl)c2)c(OC)c1 [DM3]	69.87 ± 0.19			81.5 ± 4.09		44.08			43.3 ± 1.2	5.73 ± 0.142	7.89 ± 0.63	0.13 ± 0.023	99.67 ± 0.53
COc1ccc(C(=O)/C=C/c2ccc(Cl)cc2)c(OC)c1 [DM4]	80.1 ± 1.59	4.48 ± 0.152	38.8 ± 3.4	74.2 ± 2.43	0.589 ± 0.055	7.61	18.6 ± 1.04	90.82 ± 0.09					
COc1ccc(C(=O)/C=C/c2ccccc2Br)c(OC)c1 [DM5]	60.54 ± 0.03			71.2 ± 6.12		77.02			54.5 ± 4.32	12.4 ± 0.872	10.6 ± 1.88	0.161 ± 0.02	87.8 ± 0.29
COc1ccc(C(=O)/C=C/c2cccc(Br)c2)c(OC)c1 [DM6]	79.7 ± 1.1			73 ± 0.75		86.49			62.7 ± 1.32	12.8 ± 1.57	5.5 ± 0.64	0.148 ± 0.087	88.53 ± 0.22
COc1ccc(C(=O)/C=C/c2ccc(Br)cc2)c(OC)c1 [DM7]	98.2 ± 1.01			87.2 ± 1.19		5.60			40.3 ± 1.05	4.733 ± 0.005	15.6 ± 1.78	0.844 ± 0.023	97.29 ± 0.34
COc1ccc(C(=O)/C=C/c2ccccc2F)c(OC)c1 [DM8]	85.42 ± 0.67			82.7 ± 10.4		11.90			56.4 ± 7.34	13.4 ± 0.82	11.1 ± 1.44	1.13 ± 0.033	91.01 ± 0.06
COc1ccc(C(=O)/C=C/c2cccc(F)c2)c(OC)c1 [DM9]	72.5 ± 3.69			71.9 ± 3.06		45.93			50.6 ± 0.82	11.3 ± 1.06	10.8 ± 0.23	0.246 ± 0.074	88.2 ± 0.28
COc1ccc(C(=O)/C=C/c2ccc(F)cc2)c(OC)c1 [DM10]	92.84 ± 0.51			64.3 ± 6.85		8.14			53.9 ± 7.17	16 ± 1.47	23.2 ± 0.37	1.96 ± 0.065	87.13 ± 0.42
COc1ccc(C(=O)/C=C/c2ccccc2)cc1OC [DM11]	80.5 ± 1.36			80.3 ± 5.21		6.54			64.6 ± 0.72	14.3 ± 1.83	14.6 ± 3.48	2.19 ± 0.098	97.5 ± 1.02
COc1ccc(C(=O)/C=C/c2ccccc2Cl)cc1OC [DM12]	63.5 ± 1.47			68.5 ± 2.87		>32.65			88.7 ± 9.4	> 40	8.98 ± 0.92	1.23 ± 0.25	94.3 ± 1.06
COc1ccc(C(=O)/C=C/c2cccc(Cl)c2)cc1OC [DM13]	100 ± 7.32			95 ± 3.4		>8.51			75.6 ± 0.88	> 40	7.49 ± 0.12	4.7 ± 0.32	99.86 ± 0.28
COc1ccc(C(=O)/C=C/c2ccc(Cl)cc2)cc1OC [DM14]	76.5 ± 1.37			97.6 ± 3.42		>48.02			98.8 ± 1.77	> 40	9.45 ± 2.88	0.833 ± 0.087	99.83 ± 0.81
COc1ccc(C(=O)/C=C/c2ccccc2Br)cc1OC [DM15]	55.2 ± 1.01			83.9 ± 4.91		>55.87			77.5 ± 7.07	> 40	10.2 ± 0.17	0.716 ± 0.056	99.54 ± 0.24
COc1ccc(C(=O)/C=C/c2cccc(Br)c2)cc1OC [DM16]	91.2 ± 1.43			82.7 ± 9.21		>35.94			76.9 ± 0.88	> 40	11.8 ± 5.27	1.11 ± 0.26	99.74 ± 0.04
